Data published in ChEMBL document CHEMBL3045056, “Structures and Biological Activities of Phytotoxins Produced by the Plant Pathogenic Fungus Bipolaris cynodontis cynA” (J Pestic Sci, 1998).
The source made the active and inactive calls. No cut-off for these calls is given here.

Tests used:
Oryza sativa = experiment: Phytotoxicity in Oryza sativa (rice) seedlings assessed as assessed as inhibition of root growth at 100 ppm at 26 degC for 72 hr; assay type: functional, organism-based
[1] = Octanol-water partition coefficient, log K of the compound by reversed-phase HPLC; assay type: physicochemical; conditions: read-out: log K
Lolium multiflorum = experiment: Phytotoxicity against Lolium multiflorum (Italian ryegrass) seedlings assessed as inhibition of root growth at 100 ppm at 26 degC for 72 hr; assay type: functional, organism-based

SMILES | logP [1] | inhibition (Oryza sativa) | inhibition (Lolium multiflorum)
CC[C@H](C)[C@@H](O)[C@@H](C)C1=C(CC(C)=O)C(=O)C2=C(O[C@]3(C)CC[C@H]4O[C@@H](C(C)(C)O)CC[C@]4(C)[C@H]3[C@@H]2O)[C@]1(O)OC [COCHLIOQUINOL III] | 0.31 | Active | Active
CC[C@H](C)[C@@H](O)[C@@H](C)C1=CC(=O)C2=C(O[C@]3(C)CC[C@H]4O[C@@H](C(C)(C)O)CC[C@]4(C)[C@H]3[C@@H]2O)[C@]1(O)CC(C)=O [COCHLIOQUINOL II] | -0.05 | Active | Active
CC[C@H](C)C(=O)[C@@H](C)C1=CC(=O)C2=C(O[C@]3(C)CC[C@H]4O[C@@H](C(C)(C)O)CC[C@]4(C)[C@H]3[C@@H]2O)[C@]1(O)CC(C)=O [COCHLIOQUINOL] | -0.238 | Active | Active
CC[C@H](C)[C@@H](OC(C)=O)[C@@H](C)C1=CC(=O)C2=C(O[C@]3(C)CC[C@H]4O[C@@H](C(C)(C)O)CC[C@]4(C)[C@H]3[C@@H]2O)C1=O [COCHLIOQUINONE A] | 0.337 | Active | Active
C/C=C(\C)[C@@H](OC(C)=O)[C@@H](C)C1=CC(=O)C2=C(O[C@]3(C)CC[C@H]4O[C@@H](C(C)(C)O)CC[C@]4(C)[C@H]3[C@@H]2O)C1=O [STEMPHONE] | 0.224 | Active | Active

More lines, main results first:

logP [1] | SMILES | inhibition (Oryza sativa) | inhibition (Lolium multiflorum)
0.437 | CC[C@H](C)C(=O)[C@@H](C)C1=CC(=O)C2=C(O[C@]3(C)CC[C@H]4O[C@@H](C(C)(C)O)CC[C@]4(C)[C@H]3C2)C1=O [COCHLIOQUINONE B] | Active | Active
0.091 | CC[C@H](C)C(=O)[C@@H](C)C1=CC(=O)C2=C(O[C@]3(C)CC[C@H]4O[C@@H](C(C)(C)O)CC[C@]4(C)[C@H]3[C@@H]2O)C1=O [COCHLIOQUINONE C] | Active | Active
0.287 | C/C=C(\C)C(=O)[C@@H](C)C1=CC(=O)C2=C(O[C@]3(C)CC[C@H]4O[C@@H](C(C)(C)O)CC[C@]4(C)[C@H]3C2)C1=O [COCHLIOQUINONE D] | Active | Active
0.013 | CC[C@H](C)C(=O)[C@@H](C)C1=CC(=O)C2=C(O[C@]3(C)CC[C@H]4O[C@@H](C(C)(C)O)C[C@H](O)[C@]4(C)[C@H]3C2)C1=O [COCHLIOQUINONE E] | Active | Active
0.699 | CC[C@H](C)[C@@H](OC(C)=O)[C@@H](C)c1cc(O)c2c(c1O)O[C@]1(C)CC[C@H]3O[C@@H](C(C)(C)O)CC[C@]3(C)[C@H]1C2=O [ISOCOCHLIOQUINONE A] | Active | Active
0.482 | CC[C@H](C)C(=O)[C@@H](C)c1cc(O)c2c(c1O)O[C@]1(C)CC[C@H]3O[C@@H](C(C)(C)O)CC[C@]3(C)[C@H]1C2=O [ISOCOCHLIOQUINONE C] | Active | Active
